Key:
[1] = test system: KB cells; assay: SRB cytotoxicity test procedure with KB cells; type: cell-based; settings: Homo sapiens, SRB assay, means of 2 independent experiments
From the text: Human cancer cell lines, unless otherwise noted, are obtained from the American Type Culture Collection (Rockville, Md.). […]
The SRB standard cytotoxicity assay is done according to previously reported methods (Discafani, C. M., Carroll, M. L., Floyd Jr., M. B. F., Hollander, I. J., Husain, Z., Johnson, B. D., Kitchen, D., May, M. K., Malo, M. S., Minnick Jr., A. A., Nilakantan, R., Shen, R., Wang Y-F., Wissner, A., Greenberger, L. M. Irreversible inhibition of epidermal growth factor receptor tyrosine kinase with in vivo activity by N-[4-[3-bromophenyl)amino]-6-quinaxolinyl]-2-butynamide (CL-387,785). […] Absorbance is read on a Victor V multi-label plate reader (Perkin Elmer, Gaithersburg, Md.). […]

[2] = test system: KB-8-5 cells; assay: SRB cytotoxicity test procedure with KB-8-5 cells; type: cell-based, human; settings: SRB assay
From the text: Human cancer cell lines, unless otherwise noted, are obtained from the American Type Culture Collection (Rockville, Md.). The following drug-sensitive parental cell lines, and their derived drug-resistant counterparts, are obtained from the originators as listed: (a) S1 (parental line from a subclone of human colon carcinoma line LS174T) and derived S1-M1-3.2 (herein called S1-M1) which expresses the MXR drug transporter protein, are provided by Dr. L. Greenberger, Wyeth Research (Rabindran, S. K., He, H., Singh, M., Brown, E., Collins, K. I., Annable, T., and Greenberger, L. M. Reversal of a novel multidrug resistance mechanism in human colon carcinoma cells by fumitremorgin C. Cancer Res., 58: 5850-5858,1998); (b) parental HL-60 human promyelocytic leukemia line and derived HL-60/ADR, which expresses the MRP1 drug transporter protein, are provided by Dr. M. Center, University of Kansas (McGrath, T., and Center, M. S. Adriamycin resistance in HL60 cells in the absence of detectable P-glycoprotein. Biochem. Biophys. […] J. Biol. Chem., 261: 7762-7770, 1986) via Dr. L. Greenberger, Wyeth Research.
The SRB standard cytotoxicity assay is done according to previously reported methods (Discafani, C. M., Carroll, M. L., Floyd Jr., M. B. F., Hollander, I. J., Husain, Z., Johnson, B. D., Kitchen, D., May, M. K., Malo, M. S., Minnick Jr., A. A., Nilakantan, R., Shen, R., Wang Y-F., Wissner, A., Greenberger, L. M. Irreversible inhibition of epidermal growth factor receptor tyrosine kinase with in vivo activity by N-[4-[3-bromophenyl)amino]-6-quinaxolinyl]-2-butynamide (CL-387,785). Biochem. Pharmacol., 57: 917-925, 1999). Briefly, cells are plated in 100 μL of medium in 96-well flat-bottom microtiter plates in the morning of day 1 and allowed to adhere to the plates for 2-6 hr. Compounds are serially diluted into medium as 2× stocks and 100 μL of these stocks are added to cells in duplicate. Compounds are incubated with cells for 3 days. At the end of the incubation period the sulforhodamine B (SRB) assay, which measures protein content as an assessment of cell survival, is performed as described previously (Skehan, P., Storeng, R., Scudiero, D., Monks, A., McMahon, J., Vistica, D., Warren, J. T., Bokesch, H., Kenney, S., Boyd, M. R. New calorimetric cytotoxicity assay for anticancer-drug screening. J. Natl. Cancer Inst., 82:1107-1112, 1990) with some modifications. Medium is gently decanted from plates and replaced with 200 μL per well of cold serum-free medium containing a final concentration of 10% trichloroacetic acid. The plates are incubated for 1 hr at 40, washed 5 times in cold distilled water, and air-dried overnight. […] Absorbance is read on a Victor V multi-label plate reader (Perkin Elmer, Gaithersburg, Md.). […]

Question: For `CC(=O)O[C@H]1C(=O)[C@@]2(C)[C@H]([C@H](OC(=O)c3ccccc3)[C@]3(O)C[C@H](OC(=O)[C@H](O)[C@@H](NC(=O)c4ccccc4)c4ccccc4)C(C)=C1C3(C)C)[C@]1(OC(C)=O)CO[C@@H]1C[C@@H]2O` [Paclitaxel, reference compound], which IC50 [1] is on record?
Answer: Its IC50 is 2.2 nM.

Question: And the IC50 ([2]; Homo sapiens, KB 8.5 cells, means of 2 independent experiments)?
Answer: Its IC50 is 34 nM.

Question: What about the “Ratio 8.5/KB” value ([2]; IC50 on KB 8.5 cells/IC50 on KB cells) of the same compound?
Answer: Its value is 16.
